Measured values taken from patent US20040049807A1, “Fatty acid desaturase gene and protein for modulating activation of defense signaling pathways in plants” (priority 2003, published 2004).

Legend:
[1] = test system: PR-1, BGL2 and PR-5 gene transcripts; test: PR gene expression after chemical treatment of plants (northern blot); type: in vivo, Arabidopsis
Experimental: Chemical treatment of plants. Four-week-old plants were sprayed and sub-irrigated with a solution of SA […] or BTH […] in water as previously described (Shah et al. 1997). As controls, plants were similarly treated with water. Leaves were harvested at the indicated times after treatment and quick-frozen in liquid nitrogen. Leaf samples were stored at −80° C.
RNA extraction, northern and dot blot analyses. Large-scale preparation of RNA from Arabidopsis was carried out Small-scale extraction of RNA from one or two leaves was performed in the TRIzol reagent (GIBCO-BRL, Gaithersburg, Md.) following manufacturer's instructions. Northern blot analysis and synthesis of random primed probes for PR-i, BGL2 and PR-5 were synthesized as described earlier (Shah et al. 1997).

THI2.1 = THI2.1 gene expression (northern blot); type: in vivo, Arabidopsis; conditions: ssi2 plants
Experimental: (§1) FIG. 8. Expression of the SSI2 gene. (FIG. 8A) Histochemical staining of GUS activity in the leaves and inflorescence of transgenic plants expressing an SSI2::: GUS reporter gene. A 1631 bp fragment containing the SSI2 promoter was transcriptionally fused upstream of GUS in pBI121 and three independent transgenic lines were analyzed in both T1 and T2 generations. The control is a stained leaf from a wt plant. (FIG. 8B) Northern blot analysis of SSI2 (Nö), npr1-5, jar1-1 and ssi2 plants treated with water or 50 μM JA. RNA was extracted at 48 hour (h) post treatment and the blot was sequentially probed with SSI2, PDF1.2, and THI2.1. Ethidium bromide-stained rRNA served as a control for gel loading. (FIG. 8C) Northern blot analysis of plants inoculated with spores of Alternaria brassicicola. Mock (M) or fungal (A) inoculations were carried out as described previously (12). RNA was extracted at 72 h post inoculation and PDF1.2 gene expression was monitored. (FIG. 8D) Northern blot analysis of SSI2, npr1-5, jar1-1, NahG, etr1-1 and ssi2 plants treated with methanol or 50 μM MeJA. The plants were placed around a beaker containing methanol or MeJA diluted in methanol and covered with plastic wrap. RNA was prepared from leaves harvested at 48 h post treatment and analyzed for PDF1.2 gene expression.
RNA extraction and northern analyses. […]

B. cinerea = test: disease resistance to B. cinerea; type: in vivo, Arabidopsis; conditions: exogenously applied, ssi2 or ssi2 nahG plants
Experimental: FIG. 9. Analysis of disease resistance to B. cinerea. Infections with B. cinerea were carried out by wounding the leaves by needle pricks and subsequently spot inoculating spores at the wounded site. The number of pricks made per leaf were based on the leaf size and ranged from three per leaf for SSI2 (Nö) to one per leaf for the ssi2 mutant. Plants were treated with either water or 50 μM JA for 48 h prior to and throughout the infection and the inoculated leaves were photographed at 10 dpi.

root growth = test: inhibition of root growth; type: in vivo, Arabidopsis; conditions: ssi2 plants
PDF1.2 = PDF1.2 gene expression (northern blot); type: in vivo, Arabidopsis
Experimental: as §1, with “A 1631 bp fragment containing the SSI2 promoter was transcriptionally fused upstream of GUS in pBI121 and three independent transgenic lines were analyzed in both T1 and T2 generations.” left out
FIG. 10. […] Oleic acid (18:1; 0.5 mM, Sigma) or water was injected into the leaves of SSI2 (Nö), ssi2 or ssi2 nahG plants followed by treatment with 50 μM JA or water. Eight to ten individual plants each of SSI2, ssi2 or ssi2 nahG were analyzed in two independent experiments. RNA was extracted at 48 h post treatment and PDF1.2 gene expression was monitored by northern blot analysis. Ethidium bromide-stained rRNA served as a control for gel loading.
RNA extraction and northern analyses. Small-scale extraction of RNA from one or two leaves was performed in the TRIzol reagent (GIBCO-BRL, Gaithersburg, Md.) following the manufacturer's instructions. Northern blot analysis and synthesis of random primed probes for PR-1, BGL2 and PR-5, PDF1.2 and THI2.1 were synthesized.

SSI2 gene expression = SSI2 gene expression after treatment (northern analysis); type: in vivo, Arabidopsis; conditions: 12, 24 or 48 hours after treating plants
[2] = in vitro S-ACP desaturase assay

## c1ccc2snnc2c1 [BTH, benzothiadiazole]
[1]; ssi2 NPR1 nahG plants
  accumulation of PR-1 transcript: increased
[1]; ssi2 npr1-5 nahG plants
  PR-1 expression: not

## CC/C=C\C[C@H]1C(=O)CC[C@@H]1CC(=O)O [JA, jasmonic acid]
THI2.1
  induced activation of the THI2.1 gene: unaffected
B. cinerea
  B. cinerea resistance: failed to restore
Root growth
  inhibition of root growth: unaffected
PDF1.2; ssi2 NPR1, ssi2 npr1-5 or jar1-1 plants, 50 μM, 48 h
  PDF1.2 expression: induced only low to undetectable levels
PDF1.2; wt and npr1-5 plants, 50 μM, 48 h
  PDF1.2 expression: activated PDF1.2 expression effectively
SSI2 gene expression
  SSI2 gene expression: did not increase substantially over basal levels

## CC/C=C\CC1C(=O)CCC1CC(=O)OC (stereo not drawn) [MeJA, methyl JA]
B. cinerea
  B. cinerea resistance: failed to restore
Root growth
  inhibition of root growth: unaffected

## CCCCCCCCCCCCCCCCCC(=O)O [18:0, stearic acid]
[1]; exogenous application, wt plants
  PR-1 gene expression: does not induce

## mutant protein: ssi2 mutant S-ACP desaturase with leucine 146 changed to phenylalanine, bacterial-expressed (LRERARELPDDYFVVLVGDMITEEAFPTYQTMLNTLDGVRDETGASPTSWAIWTRAWTAE; (26)..(26) Phe residue instead of Leu present at position corresponding to residue 146 of wild type.; listed as Arabidopsis thaliana)
[2]; 16:0 substrate
  fold less active than wt: ~20 fold
[2]; 18:0 substrate
  fold less active than wt: approximately 10 fold
[2]; in contrast to the wt
  18:16 substrate preference ratio and Δ^9 regiospecificity: unaltered
[2]; overall summary
  activity lower than that of the wt enzyme: 10-20 fold

## C=C [ethylene]
PDF1.2; 10 or 20 parts per million, ssi2 plants
  PDF1.2 expression: not
PDF1.2; 10 or 20 parts per million, wt plants
  PDF1.2 expression: induced PDF1.2 expression
SSI2 gene expression
  SSI2 gene expression: did not increase substantially over basal levels

## O=C(O)c1ccccc1O [SA, salicylic acid]
[1]; exogenous application, ssi2 npr1-5 plant
  accumulation of the PR gene transcripts: did not further increase
SSI2 gene expression
  SSI2 gene expression: did not increase substantially over basal levels

B1: Wt SSI2: wild-type Arabidopsis SSI2 stearoyl-ACP desaturase (SEQ ID NO:3), expressed in Escherichia coli and purified (protein, listed as Arabidopsis thaliana)
chain: MALKFNPLVASQPYKFPSSTRPPTPSFRSPKFLCLASSSPALSSGPKEVESLKKPFTPPREVHVQVLHSMPPQKIEIFKSMENWAEENLLIHLKDVEKSWQPQDFLPDPASDGFEDQVRELRERARELPDDYFVVLVGDMITEEALPTYQTMLNTLDGVRDETGASPTSWAIWTRAWTAEENRHGDLLNKYLYLSGRVDMRQIEKTIQYLIGSGMDPRTENNPYLGFIYTSFQERATFISHGNTARQAKEHGDIKLAQICGTIAADEKRHETAYTKIVEKLFEIDPDGTVMAFADMMRKKISMPAHLMYDGRNDNLFDNFSSVAQRLGVYTAKDYADILEFLVGRWKIQDLTGLSGEGNKAQDYLCGLAPRIKRLDERAQARAKKGPKIPFSWIHDREVQL
[2]; purified enzyme expressed in Escherichia coli
  specific activity: ~800 nm/min/mg
